Data as given in patent publication US20220326218A1, “COMPOSITION AND METHOD FOR INHIBITING BORC COMPLEX TO TREAT CANCERS WITH NF1 DEFICIENCY AND DYSREGULATED RAS SIGNALING” (THE TRUSTEES OF DARTMOUTH COLLEGE, priority 2019, published 2022).

What was measured:
erg6Δira2Δ yeast = test: Yeast dose response curves, erg6Δira2Δ strain; format: cell-based, Saccharomyces cerevisiae; conditions: 30° C., 18 h, 100 μM to 0.039 μM, normalized to DMSO
Procedure: S. cerevisiae strains were plated at an OD600 of 0.05 in 96-well plates (Falcon) and treated with SC complete containing compound starting at 100 μM, followed by 2-fold serial dilutions to generate a 10-point range of concentrations normalized with DMSO; one row was treated with DMSO as a control. Yeast were incubated for 18 h. To process, the optical density was read using a Spectramax M2 (Molecular Devices) at a wavelength of 600 nm and normalized to DMSO. Each experiment was repeated 2-3 times with 4 technical replicates per experiment.
A high-throughput screen in Saccharomyces cerevisiae lacking a yeast homologue of NF1, IRA2 (ira2Δ) was developed and carried out to identify tool compounds that elicited synthetic lethality with NF1 loss (15). ira2Δ yeast have increased RAS-GTP, which results in increased MAPK and PKA signaling analogous to the pathways that are activated in NF1-deficient Schwann cells (17). […]
More than 5,100 structurally diverse compounds selected from and representative of a >340,000-compound library were screened. […] To determine whether Y102 was also effective in human tumor cells, the efficacy of Y102 was evaluated in two NF1-deficient human cancer cell line models of glioblastoma, U87-MG and U251-MG, and an NF1-deficient Neurofibromatosis type 1-associated MPNST cell line sNF96.2. […]

BNIP3L/Nix = test: Immunofluorescence staining for mitophagy receptor BNIP3L/Nix; format: cell-based, human; conditions: U87-MG, 24 h; 2 μM Y102, 100 μM CoCl2; CoCl2 and Y102 compared with each other
Procedure: (§1) U87-MG cells were plated at a concentration of 50,000 cells/well onto precoated poly-D-lysine (PDL) coverslips (Neuvitro) in 24-well plates (Falcon) and allowed to adhere overnight. Medium was removed and replaced with treatment-laced media normalized to DMSO, and cells were treated for the indicated timepoints. At the time of collection, cells were washed with PBS and fixed with 4% paraformaldehyde without methanol (EMS) or 100% methanol (Fischer). Coverslips were washed with Tween20-containing PBS (PBST; Fischer). Following permeabilization with 0.5% Triton X-100 in PBS (Fischer), coverslips were blocked for 1 h at room temperature in IF Buffer (0.05% azide, 0.2% Triton X-100, 2% Normal Goat Serum or, for 8-OHG, Normal Donkey Serum). The following primary antibodies were used for 1 hour at room temperature unless specified: AlexaFluor 488 pre-conjugated anti-γ-H2AX (N1-431) mouse monoclonal (30 minutes; BD Biosciences), anti-cleaved caspase 3 (Asp175) rabbit polyclonal (Cell Signaling), anti-SQSTM1/p62 (D-3) mouse monoclonal (Santa Cruz), anti-8-Hydroxyguanosine goat polyclonal (1:200; Millipore), anti-LAMP1 (D4O1S) mouse monoclonal (O/N at 4° C.; Cell Signaling), anti-BNIP3L/Nix (D4R4B) rabbit monoclonal (O/N at 4° C.; Cell Signaling), anti-FLAG (M2) mouse monoclonal (2 hours at 37° C.; Sigma-Aldrich). […]

p21 = test: Immunofluorescence of p21 expression and nucleus size; format: cell-based, human; conditions: U87-MG, 2 μM, 24 h
Procedure: as §1

U87-MG cells = test: β-Galactosidase senescence assay; format: cell-based, human; conditions: 2 μM, 72 h
Procedure: U87-MG cells were plated at 100,000 cells/well and allowed to adhere overnight. Medium was removed and replaced with medium containing DMSO, 2 μM Y102, or 100 nM Doxorubicin for a total of 72 hours. Cells were collected and stained for β-galactosidase using the Senescence β-Galactosidase Staining Kit (Cell Signaling). 100 cells were counted per condition; graph represents results from triplicate experiments.

Cn1cnnc1S/C=C/C(=O)c1ccc(F)cc1 [Y102]
effect on growth of erg6Δira2Δ yeast (OD600) (erg6Δira2Δ yeast): inhibitory effect
expression/localization of BNIP3L/Nix on the mitochondria compared to DMSO control (BNIP3L/Nix): increase
nucleus size (p21): increase
p21 expression (p21): increase
senescence (senescence-associated β-galactosidase) (U87-MG cells): no indication
